Measurements taken from patent publication US20050228007A1, “Isoquinoline derivatives and methods of use thereof” (priority 2004, published 2005).
Counter-ions that a name gives are not always drawn. Like-named read-outs stand apart in the source and are kept apart here.

How the values were obtained:
PARS [1] = target: T1, PARS (Mus musculus, UniProt P11103); assay: PARS activation in peroxynitrite-treated cultured macrophages (whole-cell 3H-NAD+ assay); assay type: cell-based; details: cultured murine macrophages; for inhibition at 0.1 µM / % PARS inhibition at 100 nM: 100 nM; for % PARS inhibition at 300 nM / inhibition at 0.3 µM: 300 nM
T1 construct: endogenous in cells; host or cells: RAW mouse macrophages
T1 sequence (P11103 whole entry): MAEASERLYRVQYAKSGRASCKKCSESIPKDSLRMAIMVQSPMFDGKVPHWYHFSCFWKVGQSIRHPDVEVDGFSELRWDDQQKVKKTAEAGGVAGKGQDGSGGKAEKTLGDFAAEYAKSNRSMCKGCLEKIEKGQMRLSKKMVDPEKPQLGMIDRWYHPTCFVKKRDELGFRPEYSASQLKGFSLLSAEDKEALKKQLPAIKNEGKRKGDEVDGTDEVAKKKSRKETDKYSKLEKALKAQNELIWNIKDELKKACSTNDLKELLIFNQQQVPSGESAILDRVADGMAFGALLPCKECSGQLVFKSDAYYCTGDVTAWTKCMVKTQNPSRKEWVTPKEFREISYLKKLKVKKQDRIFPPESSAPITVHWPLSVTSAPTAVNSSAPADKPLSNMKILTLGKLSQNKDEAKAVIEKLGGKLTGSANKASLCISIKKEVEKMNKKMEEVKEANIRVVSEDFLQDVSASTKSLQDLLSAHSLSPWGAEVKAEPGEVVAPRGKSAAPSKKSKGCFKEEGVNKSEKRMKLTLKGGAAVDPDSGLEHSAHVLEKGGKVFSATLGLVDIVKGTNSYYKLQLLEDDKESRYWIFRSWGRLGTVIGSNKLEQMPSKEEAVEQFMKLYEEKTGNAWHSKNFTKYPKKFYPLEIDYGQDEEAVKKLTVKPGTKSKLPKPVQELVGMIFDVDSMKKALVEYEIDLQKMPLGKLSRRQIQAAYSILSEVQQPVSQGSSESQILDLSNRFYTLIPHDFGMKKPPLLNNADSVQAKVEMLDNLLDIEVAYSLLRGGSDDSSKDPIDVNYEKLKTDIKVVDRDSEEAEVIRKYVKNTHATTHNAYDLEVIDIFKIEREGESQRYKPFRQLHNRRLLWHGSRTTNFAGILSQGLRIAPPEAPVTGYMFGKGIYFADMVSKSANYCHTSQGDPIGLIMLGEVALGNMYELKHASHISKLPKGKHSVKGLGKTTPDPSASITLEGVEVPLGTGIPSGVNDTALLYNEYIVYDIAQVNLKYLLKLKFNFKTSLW
Description: Raw mouse macrophages were cultured in DMEM medium with high glucose and supplemented with 10% fetal bovine serum. Cells were used at 80% confluence in 12-well plates. Cells were pretreated with various concentrations (100 nM -1 µM) of an Isoquinoline Derivative for 10 min. Peroxynitrite, a prototypical oxidant which induces DNA single strand breakage, was used to induce PARS activation. Peroxynitrite was diluted in phosphate buffered saline (PBS) (pH 11.0) and added to the cells in a bolus of 50 μl. Cells were then incubated for 20 min. […] After the 20 min incubation, the cells were spun, the medium was aspirated and the cells were resuspended in 0.5 ml assay buffer (56 mM HEPES pH 7.5, 28 mM KCl, 28 mM NaCl, 2 mM MgCl2, 0.01% w/v digitonin and 0.125 μM NAD^+ and 0.5 μCi/ml ^3H-NAD^+). Following an incubation in assay buffer, (10 min at 37° C.), PARS activity was measured as follows: 200 μl ice cold 50% w/v TCA was added and the samples were incubated for 4 hours at 4° C. Samples were then spun (10 min @ 10,000 g) and pellets washed twice with ice cold 5% w/v TCA and solubilized overnight in 250 μl 2% w/v SDS/0.1 N NaOH at 37° C. The contents of the tubes were added to 6.5 ml ScintiSafe Plus scintillation liquid (Fisher Scientific) and radioactivity was determined using a liquid scintillation counter (Wallac, Gaithersburg, Md.).

TNF-alpha = assay: LPS induced TNF production in mice; assay type: in vivo; parameters: unit not given here; details: LPS 10 mg/kg i.p., plasma at 90 minutes, vehicle 6994.0 ± 904.4, 8l as mesylate salt
[2] = test system: streptozotocin (STZ) induced hyperglycemia; assay: Single high-dose streptozotocin model of diabetes; assay type: in vivo, mice; details: 3 mg/kg i.p.; STZ 160 mg/kg; blood sugar 3 days later; STZ + vehicle 320 ± 13, basal 153 ± 21; 8l as mesylate salt
Description: PARS inhibitors and PARS deficiency are known to reduce the development of diabetes and the incidence of diabetic complications (Mabley et al., Br J. Pharmacol. 2001, 133(6):909-9; and Soriano et al., Nat Med. 2001, 7(1):108-13). […] Briefly, 160 mg/kg streptozotocin was injected to mice treated with vehicle or with illustrative Isoquinoline Derivatives intraperitoneally (3 mg/kg) and 3 days later blood sugar levels were determined using a blood glucose meter.

Balb/c mice = assay: LPS (endotoxin) induced mortality; assay type: in vivo; details: 3 mg/kg/day; 100 mg/kg LPS i.p.; over 24 h; untreated 50%
CLP induced shock = assay: Cecal ligation and puncture (CLP) induced shock mortality; assay type: in vivo; details: 3 mg/kg/day; over 24 h; untreated 100% death
[3] = test system: middle cerebral artery occlusion/reperfusion; assay: Rat model of middle cerebral artery occlusion/reperfusion; assay type: in vivo; details: 3 mg/kg/day in 3 divided i.p. doses; 2 h occlusion, 24 h reperfusion; vs vehicle-treated controls
Description: Occlusion lasted for 2 hours, followed by reperfusion for 24 hours. Infarct size was quantified with tetrazolium staining. […] There was an approximately 80% reduction in the degree of cortical necrosis and neuronal death in the animals administered with 8l (mesylate salt), when compared to vehicle-treated controls.

[4] = test system: ischemic and reperfused gut; assay: Mouse model of ischemic and reperfused gut
Description: In order to substantiate the efficacy of the Isoquinoline Derivatives in ischemia-reperfusion conditions, the effect of an illustrative Isoquinoline Derivative in a mouse model of ischemic and reperfused gut was tested. […] Following the end of the reperfusion, gut permeability was measured with the FD4 method in evened gut sacks (Liaudet et al., Shock 2000, 14(2): 134-41).

thymocytes = details: peroxynitrite induced, control 98%
Description: In addition in vitro studies in isolated thymocytes, cells were exposed to peroxynitrite or hydrogen peroxide (toxic oxidant species) to induce cytotoxicity.

PARS [5] = target: T1, PARS; assay: Cell protection assay, peroxynitrite-treated raw mouse macrophages; assay type: cell-based; details: peroxynitrite 750 μM

O=c1[nH]c2c(c3ccccc13)Cc1cc(S(=O)(=O)N3CCCC3CO)ccc1-2 (stereo not drawn) [Compound 8e, 9-[N-(2-hydroxyprolinyl)sulphonyl]-5,6-dihydro-5-oxo-11H-indeno[1,2-c]isoquinoline]
% PARS inhibition at 300 nM (PARS [1]): 68%

CN(C)CCNS(=O)(=O)c1ccc2c(c1)Cc1c-2[nH]c(=O)c2ccccc12 [Compound 8g, 9-[N-(2-[N,N-dimethylamino]ethyl)aminosulphonyl]-5,6-dihydro-5-oxo-11H-indeno[1,2-c]isoquinoline]
inhibition at 0.1 µM (PARS [1]): 34% | inhibition at 0.3 µM (PARS [1]): 55%

O=c1[nH]c2c(c3ccccc13)Cc1cc(S(=O)(=O)NCCN3CCCCC3)ccc1-2 [Compound 8h, 9-[N-(2-[piperidino-1-yl]ethyl)-aminosulphonyl]-5,6-dihydro-5-oxo-11H-indeno[1,2-c]isoquinoline]
% PARS inhibition at 100 nM (PARS [1]): 56% | % PARS inhibition at 300 nM (PARS [1]): 76%

O=c1[nH]c2c(c3ccccc13)Cc1cc(S(=O)(=O)NCCN3CCOCC3)ccc1-2 [Compound 8j, 9-[N-(2-[morpholino-4-yl]ethyl)-aminosulphonyl]-5,6-dihydro-5-oxo-11H-indeno[1,2-c]isoquinoline]
% PARS inhibition at 100 nM (PARS [1]): 34% | % PARS inhibition at 300 nM (PARS [1]): 76% | TNF (TNF-alpha; 0.1 mg/kg i.p. pretreatment): 3831.6 ± 385.2 | TNF (TNF-alpha; 1.0 mg/kg i.p. pretreatment): 5038.8 ± 377.1 | Glucose [2]: 253 ± 24 mg/dL

O=c1[nH]c2c(c3ccccc13)Cc1cc(S(=O)(=O)NCCCN3CCOCC3)ccc1-2 [Compound 8l (mesylate salt), 9-[N-(3-[morpholino-4-yl]propyl)-aminosulphonyl]-5,6-dihydro-5-oxo-11H-indeno-[1,2c]isoquinoline]
endotoxin-induced mortality (Balb/c mice): 10% | mortality (death) in CLP induced shock (CLP induced shock): 60% | reduction in the degree of cortical necrosis and neuronal death [3]: approximately 80% | reduction of the increase in the permeability of the gut ([4]; 3 mg/kg i.v. 10 min prior to reperfusion, 45 min occlusion, 1 h reperfusion, FD4 method): approximately 73% | mortality ([4]; gut ischemia-reperfusion, over 12 hours, untreated 80%): 15%

O=c1[nH]c2c(c3ccccc13)Cc1cc(S(=O)(=O)NCCCN3CCOCC3)ccc1-2 [Compound 8l, 9-[N-(3-[morpholino-4-yl]propyl)-aminosulphonyl]-5,6-dihydro-5-oxo-11H-indeno-[1,2c]isoquinoline]
Glucose [2]: 244 ± 21 mg/dL | Cytotoxicity (thymocytes; 30 nM 8l (mesylate salt per title)): 74% | Cytotoxicity (thymocytes; 100 nM 8l (mesylate salt per title)): 39% | Cytotoxicity (thymocytes; 300 nM 8l (mesylate salt per title)): 2% | Cytotoxicity (thymocytes; 1 μM 8l (mesylate salt per title)): 0% | Cytotoxicity (thymocytes; 3 μM 8l (mesylate salt per title)): 0%

O=c1[nH]c2c(c3ccccc13)Cc1cc(S(=O)(=O)NCCCN3CCCC3)ccc1-2 [Compound 8m, 9-[N-(3-[tetrahydropyrrolodino-1-yl]propyl)aminosulphonyl]-5,6-dihydro-5-oxo-11H-indeno-[1,2-c]isoquinoline]
% PARS inhibition at 300 nM (PARS [1]): 50%

CN1CCN(CCCNS(=O)(=O)c2ccc3c(c2)Cc2c-3[nH]c(=O)c3ccccc23)CC1 [Compound 8o, 9-[N-[3-(4-methylpiperazino-1-yl]propyl)-aminosulphonyl]-5,6-dihydro-5-oxo-11H-indeno-[1,2c]isoquinoline]
% PARS inhibition at 100 nM (PARS [1]): 48% | % PARS inhibition at 300 nM (PARS [1]): 55%

CCN(CC)CCN(CCN(CC)CC)S(=O)(=O)c1ccc2c(c1)=Cc1c3c(c(=O)[nH]c1=2)=CC=CC3 [Compound 8p, 9-[N,N-di-(2-[N,N-diethylamino]ethyl)-aminosulphonyl]-5,6-dihydro-5-oxo-1H-indeno-[1,2-c]isoquinoline]
inhibition at 0.1 µM (PARS [1]): 27% | inhibition at 0.3 µM (PARS [1]): 45% | TNF (TNF-alpha; 0.1 mg/kg i.p. pretreatment): 4470.0 ± 184.4 | TNF (TNF-alpha; 1.0 mg/kg i.p. pretreatment): 5090.8 ± 203.7 | Glucose [2]: 264 ± 24 mg/dL

CN(C)CCN(CCN(C)C)S(=O)(=O)c1ccc2c(c1)Cc1c-2[nH]c(=O)c2ccccc12 [Compound 8q, 9-[N,N di-(2-[N,N dimethylamino]ethyl)aminosulphonyl]-5,6-dihydro-5-oxo-11H-indeno-[1,2-c]isoquinoline]
% PARS inhibition at 100 nM (PARS [1]): 20% | % PARS inhibition at 300 nM (PARS [1]): 28%

O=c1[nH]c2c(c3ccccc13)Cc1cc(S(=O)(=O)N(CCN(CCO)CCO)CCN(CCO)CCO)ccc1-2 [Compound 8r, 9-[N,N-di(2[N,N-dihydroxyethylamino]ethyl)-aminosulphonyl]-5,6-dihydro-5-oxo-11H-indeno-[1,2c]isoquinoline]
% PARS inhibition at 100 nM (PARS [1]): 20% | % PARS inhibition at 300 nM (PARS [1]): 28%

COc1ccc2oc3c4ccccc4c(=O)[nH]c3c2c1 [Compound 22a]
% PARS inhibition at 100 nM (PARS [1]): 51% | % PARS inhibition at 1 μM (PARS [1]; 1 μM): 81%

O=c1[nH]c2c3cc(O)ccc3oc2c2ccccc12 [Compound 23a, 8-Hydroxy-6H-11-oxa-6-aza-benzo[a]fluoren-5-one]
inhibition at 0.1 µM (PARS [1]): 34% | inhibition at 0.3 µM (PARS [1]): 79% | inhibition at 1 µM (PARS [1]; 1 μM): 84%

O=c1[nH]c2c3ccc(O)cc3oc2c2ccccc12 [Compound 23b]
inhibition at 0.1 µM (PARS [1]): 53% | inhibition at 0.3 µM (PARS [1]): 57% | inhibition at 1 µM (PARS [1]; 1 μM): 58%

O=c1[nH]c2c3ccccc3[nH]c2c2ccccc12 [Compound 31, 6H,11H-Indolo[3,2-c]Isoquinoline-5-one]
inhibition at 0.1 µM (PARS [1]): 18%

NS(=O)(=O)c1ccc2c3[nH]c(=O)c4ccccc4c3n(S(N)(=O)=O)c2c1 [Compound 35a, 6H,11H-Indolo[3,2-c]Isoquinoline-5-one-9,11-disulfonamide]
inhibition at 0.1 µM (PARS [1]): 14% | inhibition at 1 µM (PARS [1]; 1 μM): 75%

Oc1nc2c(c3ccccc13)Cc1ccc(F)cc1-2 [Compound 99]
EC50 (PARS [5]): 225 nM

O=c1[nH]c2c(c3ccccc13)Cc1cc(F)ccc1-2 [Compound 100]
EC50 (PARS [5]): 180 nM

Nc1ccc2c(c1)Cc1c-2[nH]c(=O)c2ccccc12 [Compound 102, 5,6-Dihydro-5-oxo-9-amino-indeno[1,2-c]isoquinoline]
EC50 (PARS [5]): 95 nM

O=C(CO)Nc1ccc2c(c1)Cc1c-2[nH]c(=O)c2ccccc12 [Compound 104]
EC50 (PARS [5]): 65 nM

CCCNC(=O)Nc1ccc2c(c1)Cc1c-2[nH]c(=O)c2ccccc12 [Compound 105]
EC50 (PARS [5]): 80 nM

O=S(=O)(NCCCN1CCOCC1)c1cc2c(cc1F)-c1nc(O)c3ccccc3c1C2 [Compound 107]
EC50 (PARS [5]): 10 nM

O=S(=O)(O)c1ccc2c(c1)Cc1c-2nc(O)c2ccccc12 [Compound 110]
EC50 (PARS [5]): 625 nM
